The record followed here is ChEMBL document CHEMBL1138161, “Structure-activity relationships of alpha-amino acid ligands for the alpha2delta subunit of voltage-gated calcium channels” (Bioorg Med Chem Lett, 2006).

Data set [1] has as its system Rattus norvegicus. Kind of data set: Potency against persistent inflammatory pain in orally dosed rat CFA model. It is filed as functional. The settings on record: po.
Data set [2] is described as follows: Concentration in rat brain after 0.75 h at 100 umol/kg, po. The settings on record: read-out: Drug uptake. It is filed as ADME, organism-based.
For data set [3], the system named is Rattus norvegicus. Kind of data set: Maximum efficacy in rat CFA model at 300 umol/kg. The format is functional.

Turning to `N[C@H](C(=O)O)c1ccccc1`, the ED50 in the data set on Rattus norvegicus [1] came to 100 µmol/kg. Moreover, in data set [2], the concentration at 0.75 h amounted to 6300 ng/g. The molecule `N[C@@H](CCSCc1ccccc1)C(=O)O` yielded an ED50 in the data set with Rattus norvegicus [1] of 120 µmol/kg. The concentration at 0.75 h in data set [2] was found to be 430 ng/g. With `N[C@@H](CC1CCCCC1)C(=O)O`, the ED50 in the data set with Rattus norvegicus [1] is 200 µmol/kg. As to `NC(CCSCc1ccc(Br)cc1)C(=O)O` (stereo not given), the median effective dose (ED50) in the data set with Rattus norvegicus [1] was > 300 µmol/kg. In turn, `NC(C(=O)O)c1cccc(Cl)c1` (stereo not given) came in with an Efficacy with Rattus norvegicus [3] of 64%. Besides, the concentration at 0.75 h in data set [2] worked out at 1760 ng/g.

With `NCC1(CC(=O)O)CCCCC1` [GABAPENTIN], the 50% effect level in the data set with Rattus norvegicus [1] (ED50) was put at a dose of 125 µmol/kg. Moreover, the concentration at 0.75 h in data set [2] turned out to be 3410 ng/g.

What is called ED50 is the dose that gives a 50% effect, or the effect in half of the subjects.
